The record followed here is a melting point compilation (Tetko et al.; mined from patent text by program, amines drawn as free bases though some values may be those of a salt).

Where only a bound is given, the exact number is not on record here.

In general, melting point refers to the temperature of the solid-liquid transition. As to `Cn1cc(C(N)=O)c(Nc2ccc(C#N)cc2F)cc1=O`, the melting point fell in the range of 261 to 266 °C.

Molecule `Nc1ccc(C(=O)O)c(C(=O)O)c1` registered a melting point of 188 °C.

`CC(C)(C)NCC(O)c1cccc(C#N)c1F` (stereo not drawn) gave a melting point of 88 to 90 °C.

Regarding `CCCCCCCCCCCCOc1ccc([N+](=O)[O-])cc1`, the melting point lay within 51.5 to 53 °C.

Molecule `Cc1cc(SCC#Cc2ccccc2)ccc1OCC(=O)O` had a melting point of 90 to 92 °C.

With `Cc1cc(-c2nnc3c4ccccc4c(OCc4ccc5ccccc5n4)nn23)no1`, the melting point lay in the range of 223 to 225 °C.

Turning to `O=C(Nc1nc(=O)[nH]s1)c1ccc2ccccc2c1`, the melting point was over 250 °C.

In turn, `CCCCCCCCCCCC(CC(O)C(C(=O)OC(C)(C)C)S(=O)c1ccc(C)cc1)OC1CCCCO1` (stereo not drawn) displayed a melting point of 97 to 98 °C.

Turning to `Cc1nnc(-c2ccc3occ(-c4ccc(C(=O)O)cc4Cl)c3c2)o1`, the melting point was in the range of 267 to 268 °C.

On to `CCCOc1nc(N)nc(-c2ccccc2)c1-c1ccc(=O)n(C(C)C)n1`, for which the melting point was in the range of 128 to 129 °C.

The molecule `Cc1ccccc1NC(=O)Nc1ccc(C(=O)N2Cc3ccccc3Cc3ccccc32)cc1` registered a melting point of 188 to 190 °C.

Take `Cc1nc2ccc(Cl)nn2c1C(=O)c1ccc(Cl)cc1F`: the melting point stood at 160 °C.

Regarding `CS(=O)(=O)c1ccc(-c2cnn(-c3ccc(Cl)cc3)c(=O)c2-c2ccc(F)cc2)cc1`, the melting point is 214 to 216 °C.

As to `CN1Cc2c(C(=O)NN)ncn2-c2ccc(F)cc2C1=O`, the melting point lay within 288 to 290 °C.

For `CCCCC[C@@H](C)C[C@H](CN)CC(=O)O`, the melting point lay in the range of 174 to 175 °C.

`COc1ccccc1-c1ccc2cnc(NC(=O)Nc3ccc(N4CCN(C)CC4)cc3)nn12` returned a melting point of 229 to 231 °C.

`CCc1cn(C2CC(O)C(CSCc3ccccc3)O2)c(=O)[nH]c1=O` (stereo not drawn) showed a melting point of 149 to 151 °C.

As for `CCOC(=O)c1c(C)cc2ncn(-c3ccccc3)c(=O)c2c1C`, the melting point is 102 to 103 °C.

In turn, `CS(=O)(=O)c1ccc(C2=C(I)C(=O)C3(CCOCC3)O2)cc1` returned a melting point of 210 to 213 °C.

On to `CCn1nc(Br)c([N+](=O)[O-])c1Br`, for which the melting point fell in the range of 119 to 121 °C.

Regarding `CC(C)(C)OC(=O)Nc1ccc2ccc(S(C)(=O)=O)cc2c1Br`, the melting point fell in the range of 166 to 167 °C.

In turn, `O=C(O)c1cc2ccccc2c(=O)s1` displayed a melting point of 260 to 262 °C.

In the case of `CC(C)(C)NC(=O)C1CCCN1C(=O)C(O)C(Cc1ccccc1)NC(=O)C(CC(N)=O)NC(=O)COc1cccc(NC(=O)OCc2ccccc2)c1` (stereo not drawn), the melting point lay in the range of 107 to 117 °C.

On to `O=c1[nH]c2ncc(-c3ccc(-n4ccnn4)cc3)nc2n1CC1CCCCC1`, for which the melting point was in the range of 276 to 278 °C.

For the molecule `Cc1nc(SC(=N)N)[nH]c1C`, the melting point lay within 283 to 285 °C.

Molecule `CNc1ccc2cc(OC)ccc2c1N=O` yielded a melting point of 261 °C.

Consider `CCOC(=O)CCNc1ncccc1NC(=O)c1ccccc1Cl`, for which the melting point was in the range of 90 to 92 °C.

Molecule `CC1CN(c2nc(N)nc(-c3cc(Cl)ccc3Cl)n2)CC(C)O1` (stereo not drawn) showed a melting point of 192 to 195 °C.

Take `CCOC(=O)c1cn(C2CC2)c2c(C)c(F)c(F)c([N+](=O)[O-])c2c1=O`: the melting point lay within 260 to 263 °C.

For the molecule `N#Cc1c(Cl)cccc1CBr`, the melting point is 83 °C.

Molecule `COc1ccc(CC(=O)NC(=NOCC2CC2)c2c(F)cccc2C(F)(F)F)cc1` gave a melting point of 75 to 76 °C.

The molecule `Cc1ccc(-c2cc(CNc3cc(CNc4cc(-c5ccc(C)cc5)[nH]n4)n[nH]3)n[nH]2)cc1` displayed a melting point of 167 °C.

In the case of `CCOC(=O)C1=COc2cc(C(C)(C)C)c(O)cc2O1`, the melting point amounted to 222 °C.

Molecule `O=C(O)c1ccc(NCC=Cc2ccccc2)cc1` yielded a melting point of 200 to 202 °C.

In the case of `CC(C)(CO)NS(=O)(=O)c1cccc(Br)c1`, the melting point came out at 138 °C.

The molecule `COc1cccc(CCNC(=O)Cc2cccs2)c1` had a melting point of 50 °C.

Consider `CC(C)(C)NCC(COc1cccc2c1CC(=O)N2)OC(=O)C=Cc1ccccc1` (stereo not drawn), for which the melting point is 128 to 132 °C.

On to `CC1CC(Nc2ccc(F)cc2)c2cc(F)ccc2N1` (stereo not drawn), for which the melting point was in the range of 120 to 122 °C.

The molecule `CN1C(=O)C(C)(CCN2CCN(c3cccc4ccccc34)CC2)c2cc(F)ccc21` (stereo not drawn) had a melting point of 144 to 146 °C.

`CC(C)c1c(/C=C/I)c(-c2ccc(F)cc2)nc2ccccc12` yielded a melting point of 145 to 147 °C.

In turn, `CCOC(=O)C(=O)CC(=O)c1cn(Cc2ccccc2F)c2cc(Cl)ccc2c1=O` registered a melting point of 173 to 175 °C.

`COC(=O)c1cnc(N2CCNC2=O)s1`: the melting point fell in the range of 205 to 208 °C.

`CCOC(=O)c1c(-c2ccc(N)cc2)c(C#N)c(=O)n2ccccc12` came in with a melting point of 260 to 262 °C.

Turning to `Oc1ccc(C2COc3cc(O)ccc3C2c2ccc(OCCN3CCCC3)cc2)cc1` (stereo not drawn), the melting point lay in the range of 112 to 116 °C.

The molecule `CCc1c(CCNC(=O)CCC(C)CC(=O)NCCc2ccc(OC)c(OC)c2CC)ccc(OC)c1OC` (stereo not drawn) had a melting point of 152 to 153 °C.

`O=S(=O)(c1ccc(Nc2nccc(Nc3ccc(F)cc3)n2)cc1)N1CCC(C(O)c2ccncc2F)CC1` (stereo not drawn) registered a melting point of 140 °C.

Regarding `C#CCNC(=O)C=C(C)N`, the melting point fell in the range of 137 to 138 °C.

Molecule `O=C(O)Cc1ccccc1OCCNC(=O)C1Cc2ccccc2N1S(=O)(=O)c1ccc(-c2cccc(C(F)(F)F)c2)cc1` (stereo not drawn) gave a melting point of 131 to 134 °C.

In turn, `CC(=O)OC1Cc2ccc([N+](=O)[O-])cc2C1` (stereo not drawn) had a melting point of 84 to 85 °C.

For the molecule `NC(=O)c1ccc2c(O)cncc2c1`, the melting point is over 250 °C.

For the molecule `CN1CCN(CCC#Cc2cc3c(Nc4ccc5[nH]ccc5c4)c(C#N)cnc3s2)CC1`, the melting point fell in the range of 195 to 197 °C.

`CCOC(=O)N1C=CC(c2ccc(F)cc2)C(C(=O)OC)=C1` (stereo not drawn) showed a melting point of 83 to 85 °C.

On to `O=C(O)COc1ccccc1C(=O)NCc1ccc(Br)cc1F`, for which the melting point fell in the range of 144 to 145 °C.

For `O=C1c2ccccc2COc2cc(C=NO)ccc21`, the melting point was in the range of 170 to 172 °C.

For `OC1CSC(Oc2ccc(-c3ccncc3)nc2F)C(O)C1O` (stereo not drawn), the melting point stood at 196 °C.

In the case of `CCOC(=O)N1CCN(C2=Nc3ccccc3Cc3nccn32)CC1`, the melting point is 137 to 139 °C.

`CC(C)c1nn(-c2ccc(C(F)(F)F)cc2)cc1CCCOc1ccccc1CC(=O)O` returned a melting point of 89 to 90 °C.

Take `CCc1c(-c2cc(C)c(O)c(C)c2)[nH]c2ccc(OC)cc12`: the melting point fell in the range of 176 to 178 °C.

In turn, `O=C(c1ccccc1)C(Br)OCc1ccc(Cl)cc1Cl` (stereo not drawn) had a melting point of 89 to 91 °C.

Regarding `CCC(C)(CC)c1ccc(=O)[nH]n1`, the melting point was 97 to 99 °C.

On to `c1cn2cnnc2c2cc3c(cc12)OCO3`, for which the melting point lay in the range of 267 to 269 °C.

For `CC1(C)CCc2c(N3CCCC3)nc3sc4c(NCCN5CCOCC5)ncnc4c3c2C1`, the melting point is 173 to 174 °C.

The molecule `Cc1c(C2=CCC(Cc3ccccc3)(N(C)C)CC2)[nH]c2ccc(C(F)(F)F)cc12` (stereo not drawn) yielded a melting point of 119 to 120 °C.

In turn, `COC(=O)CC1=C(C)C(=Cc2ccc(S(N)(=O)=O)cc2)c2ccc(OC)cc21` came in with a melting point of 170 to 171 °C.

Take `Cc1cc(C)c2nc(NCCCN3CCCCC3)n(Cc3nc(C)ccc3O)c2c1`: the melting point is over 260 °C.

As to `CN(C)CCc1c(-c2ccc3ccccc3c2)[nH]c2ccccc12`, the melting point was in the range of 185 to 186 °C.

Molecule `CC(=O)C(C)Oc1cc(-n2c(=O)cc(C(F)(F)F)n(C)c2=O)c(F)cc1Br` (stereo not drawn) registered a melting point of 119 °C.

Turning to `O=C1NC(=O)C2(c3ccc4ncccc4n3)C=CC=CC12` (stereo not drawn), the melting point was 206 °C.

For the molecule `CCc1cn(C2CC(O)C(CNCc3ccccc3Br)O2)c(=O)[nH]c1=O` (stereo not drawn), the melting point fell in the range of 144 to 146 °C.

`COCC(=O)OC(CC1CC1)c1ccc(Cl)c2nc3n(c12)CCCN3c1ccc(Cl)cc1Cl` (stereo not drawn) came in with a melting point of 159 to 161 °C.

With `COC(=O)C1=C(C)NC(C)=C(C(=O)OCCCCN(C)CCC(c2ccccc2)c2ccccc2)C1c1cccc([N+](=O)[O-])c1` (stereo not drawn), the melting point was 91 to 103 °C.

In the case of `O=c1[nH]c2cc([N+](=O)[O-])c(S(=O)(=O)c3cccc4cnccc34)cc2o1`, the melting point is over 270 °C.

On to `CC(C)c1nc(COC(N)=O)n(Cc2cnc3ccccc3c2)c1Sc1cc(Cl)cc(Cl)c1`, for which the melting point was in the range of 214 to 216 °C.

`CNC12CCCCC1CCc1cc(O)ccc12` (stereo not drawn) returned a melting point of 191 °C.

On to `C1=C(c2ccncc2)CCC2(C1)OCCO2`, for which the melting point lay within 67 to 70 °C.

For `COc1cc(OCc2ccccn2)ccc1/C=C/c1cc(/C=C/c2cccc3[nH]ccc23)n[nH]1`, the melting point fell in the range of 108 to 113 °C.

`CC(=O)c1cc2c(s1)CCC1CC(=O)N(c3ccc(C)cc3)N=C21` (stereo not drawn): the melting point fell in the range of 191 to 193 °C.

As to `CCn1c(N)c(-c2nccn2COCC[Si](C)(C)C)c(=O)c2ccc(-c3ccc(C(C)C(=O)O)cc3)nc21` (stereo not drawn), the melting point was 248 °C.

`CC(=O)OC1CSC(Oc2cccc(-c3cccnc3)c2)C(OC(C)=O)C1OC(C)=O` (stereo not drawn) came in with a melting point of 123 to 126 °C.

As to `CCCc1c(OCC(O)CSc2ccc(C(=O)CCC(=O)O)cc2F)ccc(C(C)=O)c1O` (stereo not drawn), the melting point was 106 to 109 °C.

In turn, `COc1cc(C(=O)N(C(C)C)C2CCCCC2)ccc1Oc1cc(OC)c(OC)c(OC)c1` registered a melting point of 126 to 128 °C.

Take `CSc1ccc(CC(=O)NC(NC(=NC#N)Nc2ccccc2C)C(C)(C)C)cc1` (stereo not drawn): the melting point lay in the range of 151 to 152 °C.

`CCCOc1cc(C)c(C=CC(C)=CC=CC(C)=CC(=O)OCC)c(C)c1C` registered a melting point of 200 to 201 °C.

`CS(=O)(=O)C1Cc2cc(Cl)ccc2C1O` (stereo not drawn) registered a melting point of 163 °C.

`COc1cc(CC(=O)O)ccc1CNC(=O)C1Cc2ccccc2N1S(=O)(=O)c1ccc(-c2cccc(C(F)(F)F)c2)cc1` (stereo not drawn): the melting point lay in the range of 99 to 105 °C.

For the molecule `Oc1cc(C2CC2)[nH]n1`, the melting point was in the range of 213 to 215 °C.

Molecule `Fc1cc(Br)c2ncccc2c1` registered a melting point of 75 to 78 °C.

The molecule `c1ccc(-c2cccc(-c3nc4c5ccccc5ccn4n3)c2)cc1` displayed a melting point of 167 to 169 °C.
